Results from PubChem BioAssay (NCI).
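Values below derive from 48-hour exposures of cells grown in 96-well plates, with endpoints linearly interpolated between the two concentrations bracketing the appropriate inhibition level. The concentration for 50% growth inhibition is given as GI50. TGI marks complete inhibition of growth.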

How the values were obtained:
Test in all cases: DTP human tumour cell line panel, 48 h
CCRF-CEM leukemia = system: CCRF-CEM leukemia
SF-295 CNS = system: SF-295 CNS
HCT-15 colon = system: HCT-15 colon
OVCAR-4 ovarian = system: OVCAR-4 ovarian
MALME-3M melanoma = system: MALME-3M melanoma
U251 CNS = system: U251 CNS
HL-60(TB) leukemia = system: HL-60(TB) leukemia
TK-10 renal = system: TK-10 renal
MOLT-4 leukemia = system: MOLT-4 leukemia
HOP-62 NSCLC = system: HOP-62 NSCLC
MDA-MB-231 breast = system: MDA-MB-231 breast
COLO 205 colon = system: COLO 205 colon
HT29 colon = system: HT29 colon
OVCAR-5 ovarian = system: OVCAR-5 ovarian
HCT-116 colon = system: HCT-116 colon
UACC-257 melanoma = system: UACC-257 melanoma
T-47D breast = system: T-47D breast
SK-OV-3 ovarian = system: SK-OV-3 ovarian
OVCAR-3 ovarian = system: OVCAR-3 ovarian
PC-3 prostate = system: PC-3 prostate
SR leukemia = system: SR leukemia
SW-620 colon = system: SW-620 colon
NCI-H226 lung = system: NCI-H226 lung
786-0 renal = system: 786-0 renal
SN12C renal = system: SN12C renal
KM12 colon = system: KM12 colon
A549 NSCLC = system: A549 NSCLC
NCI-H460 lung = system: NCI-H460 lung
RXF 393 renal = system: RXF 393 renal

SMILES: O=S(=O)(O)c1ccc2cc3nn(-c4ccc(/C=C/c5ccc(-n6nc7cc8ccc(S(=O)(=O)O)cc8cc7n6)cc5S(=O)(=O)O)c(S(=O)(=O)O)c4)nc3cc2c1
- GI50 (CCRF-CEM leukemia): 30.8 µM
- TGI (CCRF-CEM leukemia): > 100 µM
- GI50 (SF-295 CNS): > 100 µM
- TGI (SF-295 CNS): > 100 µM
- GI50 (HCT-15 colon): 6.21 µM
- TGI (HCT-15 colon): > 100 µM
- GI50 (OVCAR-4 ovarian): > 100 µM
- TGI (OVCAR-4 ovarian): > 100 µM
- GI50 (MALME-3M melanoma): > 100 µM
- TGI (MALME-3M melanoma): > 100 µM
- GI50 (U251 CNS): 50.3 µM
- TGI (U251 CNS): > 100 µM
- GI50 (HL-60(TB) leukemia): 31.9 µM
- TGI (HL-60(TB) leukemia): > 100 µM
- GI50 (TK-10 renal): 10.6 µM
- TGI (TK-10 renal): > 100 µM
- GI50 (MOLT-4 leukemia): 12.2 µM
- TGI (MOLT-4 leukemia): 81.7 µM
- GI50 (HOP-62 NSCLC): > 100 µM
- TGI (HOP-62 NSCLC): > 100 µM
- GI50 (MDA-MB-231 breast): 37 µM
- TGI (MDA-MB-231 breast): > 100 µM
- GI50 (COLO 205 colon): 74 µM
- TGI (COLO 205 colon): > 100 µM
- GI50 (HT29 colon): 59.1 µM
- TGI (HT29 colon): > 100 µM
- GI50 (OVCAR-5 ovarian): 62.5 µM
- TGI (OVCAR-5 ovarian): > 100 µM
- GI50 (HCT-116 colon): 23.6 µM
- TGI (HCT-116 colon): > 100 µM
- GI50 (UACC-257 melanoma): > 100 µM
- TGI (UACC-257 melanoma): > 100 µM
- GI50 (T-47D breast): > 100 µM
- TGI (T-47D breast): > 100 µM
- GI50 (SK-OV-3 ovarian): > 100 µM
- TGI (SK-OV-3 ovarian): > 100 µM
- GI50 (OVCAR-3 ovarian): > 100 µM
- TGI (OVCAR-3 ovarian): > 100 µM
- GI50 (PC-3 prostate): 74.7 µM
- TGI (PC-3 prostate): > 100 µM
- GI50 (SR leukemia): 34.4 µM
- TGI (SR leukemia): > 100 µM
- GI50 (SW-620 colon): 63.2 µM
- TGI (SW-620 colon): > 100 µM
- GI50 (NCI-H226 lung): > 100 µM
- TGI (NCI-H226 lung): > 100 µM
- GI50 (786-0 renal): > 100 µM
- TGI (786-0 renal): > 100 µM
- GI50 (SN12C renal): 67.8 µM
- TGI (SN12C renal): > 100 µM
- GI50 (KM12 colon): 30.4 µM
- TGI (KM12 colon): > 100 µM
- GI50 (A549 NSCLC): 41.7 µM
- TGI (A549 NSCLC): > 100 µM
- GI50 (NCI-H460 lung): 50.9 µM
- TGI (NCI-H460 lung): > 100 µM
- GI50 (RXF 393 renal): > 100 µM
- TGI (RXF 393 renal): > 100 µM
